# From patent US20260124192A1, “COMPOUNDS, COMPOSITIONS, AND METHODS OF TREATING RNA VIRAL INFECTIONS” (priority 2024, published 2026)
# Test system: 13 viruses and variants
# Assay: organism not typed
# Type: cell-based
smiles,measurement,value
Cc1c(-c2ccc(O)cc2)n(Cc2ccc(OCCN3CCCCC3)cc2)c2ccc(O)cc12 [Pipendoxifene],potency,submicromolar potency
